Values quoted from earlier work in patent US20180256462A1, “ALCOHOL-BASED SKIN SANITIZER HAVING MICROBICIDAL PROPERTIES” (DEB IP LIMITED, priority 2015, published 2018).
Where two headings read alike, the source gives them in different places.

What was measured:
Microsporum gypseum [1] = system: Microsporum gypseum
Microsporum gypseum [2] = settings: 10% in Vaseline petroleum jelly, topical daily for 3 weeks; for skin lesion scoring: first week of application; for histopathologic examination of skin tissues (hyperkeratosis, inflammatory cell infiltration): versus positive control
Lactobacillus fermentum = settings: live cells of Lactobacillus fermentum, flow cytometry
Staphylococcus aureus = settings: low concentrations (0.5 to 2 mM), disk diffusion

Row | SMILES | MIC (Microsporum gypseum [1]) | MIC (Microsporum gypseum [1]; positive control) [µg/mL] | hair culture test (Microsporum gypseum [2]) | skin lesion scoring (Microsporum gypseum [2]) | histopathologic examination of skin tissues (hyperkeratosis, inflammatory cell infiltration) (Microsporum gypseum [2]) | intracellular accumulation of ethidium bromide (Lactobacillus fermentum) | susceptibility of Staphylococcus aureus to ciprofloxacin, clindamycin, erythromycin, gentamicin, tetracycline, and vancomycin (Staphylococcus aureus) | sensitization of Escherichia coli to polymyxin B (Escherichia coli)
1 | CC(C)=CCC/C(C)=C/CC1CCCC1=O (stereo not drawn) [apritone] |  |  |  |  |  | promoted the intracellular accumulation of the membrane-impermeant nucleic acid stain ethidium bromide | enhanced the susceptibility of Staphylococcus aureus | 
2 | CC(C)=CCC[C@](C)(O)C1CC=C(C)CC1 (stereo partly drawn) [bisabolol] |  |  |  |  |  | promoted the intracellular accumulation of the membrane-impermeant nucleic acid stain ethidium bromide | enhanced the susceptibility of Staphylococcus aureus | 
3 | CC(C)=CCCC(C)=CCCC(C)=CCO [farnesol] |  |  |  |  |  | promoted the intracellular accumulation of the membrane-impermeant nucleic acid stain ethidium bromide |  | sensitized Escherichia coli to polymyxin B

Continued, in another order:

Row | MIC (Microsporum gypseum [1]) | MIC (Microsporum gypseum [1]; positive control) [µg/mL] | SMILES | hair culture test (Microsporum gypseum [2]) | skin lesion scoring (Microsporum gypseum [2]) | histopathologic examination of skin tissues (hyperkeratosis, inflammatory cell infiltration) (Microsporum gypseum [2]) | intracellular accumulation of ethidium bromide (Lactobacillus fermentum) | susceptibility of Staphylococcus aureus to ciprofloxacin, clindamycin, erythromycin, gentamicin, tetracycline, and vancomycin (Staphylococcus aureus) | sensitization of Escherichia coli to polymyxin B (Escherichia coli)
4 | 0.5-2% |  | C=CC(C)(O)CCC=C(C)CCC=C(C)C (mixture of isomers) [nerolidol, 3,7,11-trimethyl-1,6,10-dodecatrien-3-ol] | improved the skin lesions infected by M. gypseum | clinically effective at improving the lesion during the first week of application | lower degree of hyperkeratosis and inflammatory cell infiltration than the positive control | promoted the intracellular accumulation of the membrane-impermeant nucleic acid stain ethidium bromide | enhanced the susceptibility of Staphylococcus aureus | sensitized Escherichia coli to polymyxin B
5 |  | 4 to 16 | Clc1ccc(COC(Cn2ccnc2)c2ccc(Cl)cc2Cl)cc1 (stereo not drawn) [econazole] |  |  |  |  |  | 
6 | 0.01-0.03% |  | C=CCc1ccc(O)c(OC)c1 [eugenol] | did not | clinically effective at improving the lesion during the first week of application | lower degree of hyperkeratosis and inflammatory cell infiltration than the positive control |  |  | 
